Results on seven compounds are retold here after article doi:10.1101/2025.04.10.648262, “Time-resolved phenotyping at subcellular resolution reveals shared principles and key trade-offs across antimicrobial peptide activities” (bioRxiv, 2026).

Read-outs that look alike come from different tables or passages of the source. Bridge positions count the residues as written; N and C are the ends. Ends that are not written are not given here.

Holding throughout (format): cell-based, Escherichia coli
The subject of experiment [1] is E. coli (MG1655). Conditions: MG1655, 20 h. The procedure:
For all experiments and E. coli strains, cells were grown in a medium (M9gluCAAT) with M9 salts (33.7 mM Na2HPO4, 22mM KH2PO4, 8.55 mM NaCl, 9.35 mM NH4Cl), 0.2% (w/v) glucose, 0.4% (w/v) casamino acids, 1 mM MgSO4, 0.3 mM CaCl2, 1 μg/mL thiamine, and trace elements (13.4 mM ethylene-diamine-tetra-acetic-acid (EDTA), 3.1 mM FeCl3-6H2O, 0.62 mM ZnCl2, 76 μM CuCl2-2H2O, 42 μM CoCl2-2H2O, 162 μM H3BO3, 8.1 μM MnCl2-4H2O). Prior to every experiment, cells were first inoculated into M9gluCAAT and grown to stationary phase at 37°C. For all assays except the biofilm experiments, the culture was diluted to 1/10,000 or more in fresh medium and grown at 37°C until it reached an optical density at 600 nm (OD) of 0.2–0.4. For the biofilm experiments, cells were grown in M9gluCAAT supplemented with 100 μg/mL ampicillin to maintain the GFP-expressing plasmid. The overnight stationary-phase cultures were then diluted into the same medium to an OD of 0.015. See below for details on biofilm growth.
Except for the biofilm experiments, the strains used in this study were derived from MG1655 (ATCC 47076), which was used to estimate the minimum inhibitory concentration (MIC) for all the studied peptides (or peptoids) using a microplate reader (Figure 1A). To detect the timing of outer and inner membrane permeabilization to proteins, strain CJW7845 was constructed to carry two freely diffusing fluorescent proteins: mScarlet-I in the periplasm and mTagBFP2 in the cytoplasm. Construction of CJW7845 was done by transforming pBAD-mTagBFP2 plasmid (Addgene #34632, a gift from Vladislav Verkhusha; ([Subach et al., 2011])) into an E. coli strain expressing a periplasmic mScarlet-I reporter ([Cañas-Duarte 2021]), as previously described ([Chung et al., 1989]). Transformants were restreaked on fresh selection plates and confirmed via microscopy.
(§1) To determine the minimal inhibitory concentration (MIC) of the selected AMPs against either MG1655 or ATCC 25922 E. coli strains, exponentially growing cells were diluted in fresh medium to an OD = 10^−6 (~500 cells/mL) and mixed 50:50 with titrated AMP concentrations (which were chosen to be over a range that included the MIC) in a 96-well plate (flat bottom with low evaporation lid, 3595, Corning, Arizona, USA). A final OD of 5 × 10^−7 corresponds to ~250 cells/mL. OD curves were sampled every 5 min for a total of 48 h using a microplate reader (BioTek Synergy 2, Agilent Technologies Inc., California, USA). Raw data were exported as a text file and analysed using a custom-written Python script (microplate_reader_analysis.py). To measure maximum growth rates, the log(OD) was fitted using a linear regression over a 12-point moving window (60 min), which provides the instantaneous growth rate (log(OD)/h), from which the global maximum was computed. The MIC was defined as the minimum AMP concentration for which the maximum growth rate was < 0.2 log(OD)/h within the first 20 h of incubation. Each MIC experiment was performed independently at least three times (with at least two technical replicates each), and the mode across all replicates was taken as the final MIC; in the rare cases of a tie, an additional replicate was performed, which was sufficient to resolve it.

Experiment [2] has as its system E. coli ATCC 25922. The procedure:
Strain ATCC 25922GFP (ATCC, Virginia, USA), which carries a GFP-expressing plasmid, was selected for biofilm experiments. The strain’s ability to form biofilms was first verified at 37°C using Congo Red staining on agar plate containing M9gluCAAT. Congo Red dye binds curli, a major component of the biofilm extracellular matrix. Strain ATCC 25922 (lacking the GFP-expressing plasmid) was used for MIC determination (to avoid interference from the presence of ampicillin required to maintain the plasmid) following the standard growth protocol described above.
as §1

For experiment [3], the system named is E. coli strain (CJW7845). The experiment in a line: Time-lapse single-cell phenotyping of inner/outer membrane permeabilization to proteins and growth arrest in microwells. Also on record: key to Class (timing of growth arrest relative to IM permeabilization to proteins): Class I AMPs and PMs cause growth arrest predominantly associated with inner membrane (IM) permeabilization; class II compounds inhibit growth without substantial IM permeabilization. The conditions noted are these: for OM-permeabilized cells among IM-permeabilized cells: CJW7845, during the experiment. How it is done:
For experiments with PDMS microwells, cells were allowed to grow for ~30 min in the temperature-controlled enclosure prior to imaging. A 10X concentrated AMP solution was spiked in (at 1/10 the volume of the well) and mixed well by pipetting after ~20 min from the start of the image acquisition, without interrupting the timelapse sequence. When the uptake of SYTOX Green was monitored, SYTOX Green was included in the AMP solution and spiked in during the experiment to obtain a final concentration of SYTOX Green of 50 nM in the well. This allowed us to monitor healthy cell growth prior to AMP treatment, to rapidly set the desired AMP (or SYTOX Green) concentration from one frame to the next (unlike for flow-controlled injection systems), and to resolve the AMP-induced phenotype in real time. The current design allows for testing up to four independent conditions in parallel.
To analyse the single-cell experiments in microwells, OmniSegger software (https://github.com/tlo-bot/omnisegger), which combines SuperSegger MATLAB-based suite ([Stylianidou et al., 2016]) for cell analysis with Omnipose segmentation ([Cutler et al., 2022]), was used to first process the microscopy images by performing drift correction, cell segmentation, and cell linking. Given that AMP-treated cells can display extreme phenotypes, such as exceedingly bright and/or heterogeneous phase contrast signal (likely a result of the widely changing intracellular density upon AMP treatment) and that the software’s pre-trained model bact_phase_omni ([Cutler et al, 2022]) tended to split cells before cell division was completed, a new Omnipose model was trained from scratch starting from bact_phase_omni-generated masks that were further corrected and curated using custom-made Python scripts (screening_good_bad.py and generate_training_dataset.py). Details on the Omnipose model retraining can be found in a previous publication ([Thappeta et al., 2025]). The final model (omnipose_phase_microwells_model) and corresponding training datasets are available at https://github.com/JacobsWagnerLab/published/tree/master/Fragasso_et_al_2025 and BioImage Archive (accession number: S-BIAD1823), respectively.
MATLAB files of the linked cell trajectories output from OmniSegger were then imported, background subtracted using background_subtraction.py, which was adapted from a previous study ([Papagiannakis et al., 2025]), and converted to Python data structures (import_processing_code.py), from which cell features such as cell area, nucleoid area, mean fluorescence intensity, etc., were extracted for each cell at each frame. The exported dataframes were further processed to estimate instantaneous growth rates and were run through a series of functions to perform curation based on cell areas and instantaneous growth rates over time (post_processing_curation_functions.py). […] Represented data points were pooled from multiple replicates.
Analysis of strain CJW7845 proceeded by extracting the timings of permeabilization of the outer and inner membranes based on the mean fluorescence intensities of mScarlet-I and/or mTagBFP2 fluorescent proteins (using function get_permeabilization_time.py), cell growth arrest, and the initiation time of growth inhibition. To obtain accurate timings underlying membrane permeabilization events, information from both the signal intensity itself as well as its derivative were combined, which enabled us to accurately resolve the relevant changes in fluorescent protein signal beyond the intrinsic high-frequency noise and low-frequency photobleaching. Inner membrane permeabilization to proteins can result in two possible phenotypes when simultaneously monitoring freely diffusing periplasmic and cytoplasmic probes, depending on which membrane (outer or inner) becomes permeabilized first. When the outer membrane is first permeabilized, mScarlet-I signal is lost first, followed by mTagBFP2 when the inner membrane becomes also permeabilized. […]

The mark [4] stands for this setting: 2X MIC, CJW7845, M9gluCAAT, 37°C, time-lapse microscopy.

In the case of “RRRPRPPYLPRPRPPPFFPPRLPPRIPPGFPPRFPPRFP-NH2 [PR-39]”, the “MIC (mode MIC)” value amounted to 2 µM in experiment [1] and 1 µM in experiment [2] (ATCC 25922, 20 h).
Consider `CC(C)C[C@H](NC(=O)[C@H](CCCNC(=N)N)NC(=O)CNC(=O)CNC(=O)[C@@H](N)CCCNC(=N)N)C(=O)N[C@H]1CSSC[C@@H](C(=O)N[C@H](C(=O)NCC(=O)N[C@@H](CCCNC(=N)N)C(N)=O)C(C)C)NC(=O)[C@H](C(C)C)NC(=O)[C@@H]2CSSC[C@H](NC(=O)[C@H](Cc3ccc(O)cc3)NC1=O)C(=O)N[C@@H](CCCNC(=N)N)C(=O)N[C@@H](CCCNC(=N)N)C(=O)N[C@@H](CCCNC(=N)N)C(=O)N[C@@H](Cc1ccccc1)C(=O)N2` [PG-1, protegrin-1], for which the “Class (timing of growth arrest relative to IM permeabilization to proteins)” value in experiment [3] (setting [4]) is reported as “I”. In experiment [3] (2X MIC), the “OM-permeabilized cells among IM-permeabilized cells” value was 163/163. For the same compound, the “OM-permeabilized cells (out of all IM-permeabilized cells)” value in experiment [3] (10X MIC, CJW7845) is recorded as 48/59.
Turning to “KWKLFKKIEKVGQNIRDGIIKAGPAVAVVGQATQIAK-NH2 [CecA, cecropin A]”, the “MIC (mode MIC)” value in experiment [1] came out at 0.5 µM; in experiment [2] (ATCC 25922, 20 h), 0.5 µM.
“GIINTLQKYYCRVRGGRCAVLSCLPKEEQIGKCSTRGRKCCRRKK (disulfide 11-40, 18-33, 23-41 (inferred)) [HBD-3, human β-defensin 3]”: the “MIC (mode MIC)” value in experiment [1] amounted to 20 µM. In experiment [3] (setting [4]), the “Class (timing of growth arrest relative to IM permeabilization to proteins)” value is “I”; the “Type (relative timing of OM and IM permeabilization)” value is “B (type B AMPs and PMs permeabilize the IM well before (>10 min) the OM)”. Further, the “OM-permeabilized cells among IM-permeabilized cells” value in experiment [3] (2X MIC) is 7/82.
As for “RRIRFRPPYLPRPGRRPRFPPPFPIPRIPRIP [Tur1A]”, the “MIC (mode MIC)” value in experiment [1] came out at 1 µM; in experiment [2] (ATCC 25922, 20 h) it was 1 µM.
In the case of `CC[C@H](C)[C@H](N)C(=O)N[C@@H](CC(C)C)C(=O)N1CCC[C@H]1C(=O)N[C@@H](Cc1c[nH]c2ccccc12)C(=O)N[C@@H](CCCCN)C(=O)N[C@@H](Cc1c[nH]c2ccccc12)C(=O)N1CCC[C@H]1C(=O)N[C@@H](Cc1c[nH]c2ccccc12)C(=O)N[C@@H](Cc1c[nH]c2ccccc12)C(=O)N1CCC[C@H]1C(=O)N[C@@H](Cc1c[nH]c2ccccc12)C(=O)N[C@@H](CCCNC(=N)N)C(=O)N[C@@H](CCCNC(=N)N)C(N)=O` [Indo, indolicidin], the “MIC (mode MIC)” value in experiment [1] stood at 12.5 µM; in experiment [2] (E. coli ATCC 25922, M9gluCAAT, 37°C, 20 h, mode across four biological replicates), 6.2 µM.
Regarding “RRIRPRPPRLPRPRPRPLPFPRPGPRPIPRPLPFP [Bac7, bactenecin-7]”, the “MIC (mode MIC)” value was 0.6 µM in experiment [1] and 0.6 µM in experiment [2] (ATCC 25922, 20 h).
